Test results from US20260063623A1, “METHODS OF ASSESSING METABOLIC FLUX” (The Regents of the University of Michigan, priority 2022, published 2026).
Where two headings read alike, the source gives them in different places.

Legend:
[1] = test system: inosine monophosphate dehydrogenase (IMPDH); conditions: mice models, combined with radiation; cited from earlier work
[2] = test system: de novo GMP synthesis (IMPDH); test: Machine learning prediction of de novo GMP synthesis ratio in MMF treated vs control GBM PDXs infused with U13C glucose; format: in vivo; conditions: MMF treated GBM PDX mice vs control PDXs, from measured enrichment patterns
Source text: To generate data used for flux modeling, patient-derived xenografts (PDXs) from human glioblastomas are implanted into the brains of immunodeficient mice. PDXs are transduced with luciferase and EGFP prior for imaging and physical separation from brain tissue, respectively. Once brain tumors are established, mice are cannulated for infusions, treatments, and blood sampling. One catheter is surgically placed into the jugular vein of anesthetized recipient mice, and a second line is placed into the carotid artery. In experiments in which mice are to receive oral administration of MMF or vehicle, a third catheter is directed to the stomach. […] Brain tumors are separated from healthy brain tissue by fluorescence-guided microdissection. […] Small molecules from solid tissues and plasma are extracted and samples are analyzed by liquid chromatography-mass spectrometry (LC-MS) to identify the metabolites and their labeling patterns (FIG. 1A).
To train machine learning models that can predict the ratio of de novo synthesis of GMP to the overall GMP synthesis, simulated MIDs were used as input features. […] A machine learning model with a good evaluation score on a test dataset should be also evaluated on some experimental value for further validation. […] By measuring the MIDs in these two groups, the de novo GMP ratio can be calculated using the INST-MFA method and compared to machine learning results. […]

[3] = design: species or system mice; conditions: mouse, in vivo
Source text: At approximately 1-2 weeks before expected death related to brain tumors (˜3 weeks post-implant), intracranial GBM-bearing mice underwent dual catheterizations, with one catheter surgically placed into the jugular vein (for [U^13C]-glucose administration) and a second catheter placed into the carotid artery (for plasma collection during infusion). Mice were then allowed to recover from surgery for 4-5 days. In studies assessing the influence of RT on metabolism, cannulated mice were anesthetized by 2% isoflurane inhalation and then treated with cranially directed RT at a dose of 8 Gy or sham RT with a lead shield keeping the cranium […]. […]
Flash-frozen tissue samples were homogenized in cold (−80° C.) 80% methanol. […] Isotope labeling was determined using an Agilent system consisting of an Infinity Lab II UPLC coupled with a 6545 QTOF mass spectrometer (Agilent Technologies, Santa Clara, CA), and data were analyzed with values corrected for natural isotope abundance using MassHunter Profinder 10.0. […] To determine relative metabolite abundances in tissues and plasma from control or Ser/Gly (−) diet fed mice, samples were prepared as described above and then analyzed with an Agilent 1290 Infinity II LC-6470 Triple Quadrupole tandem mass spectrometer system (Agilent Technologies, Santa Clara, CA). […]

[4] = human, in vivo
Protocol: Eight patients with suspected GBM were recruited to the IRB-approved clinical study, which was performed perioperatively with standard-of-care craniotomies. Near the start of each procedure (approximately 2-4 hours prior to tissue resection), patients received a bolus intravenous dose of [U^13C]-glucose (8 g) followed by a continuous intravenous infusion of [U^13C]-glucose at a rate of 4 g/h. Arterial blood was collected into EDTA-coated vials every 30-60 min for plasma preparation and analysis until solid tissues of interest were harvested from each patient. […]
Flash-frozen tissue samples were homogenized in cold (−80° C.) 80% methanol. […] Isotope labeling was determined using an Agilent system consisting of an Infinity Lab II UPLC coupled with a 6545 QTOF mass spectrometer (Agilent Technologies, Santa Clara, CA), and data were analyzed with values corrected for natural isotope abundance using MassHunter Profinder 10.0. […] To determine relative metabolite abundances in tissues and plasma from control or Ser/Gly (−) diet fed mice, samples were prepared as described above and then analyzed with an Agilent 1290 Infinity II LC-6470 Triple Quadrupole tandem mass spectrometer system (Agilent Technologies, Santa Clara, CA). For compound optimization, calibration, and data acquisition, Agilent MassHunter Quantitative Analysis Software version B.08.02 was used.

Molecule	radiation outcomes [1]	de novo GMP synthesis ratio (de novo to overall GMP synthesis) predicted by machine learning model [2]	time to arterial steady state of labeled glucose [3] [min]	time to arterial steady state of labeled glucose [4]
COc1c(C)c2c(c(O)c1C/C=C(\C)CCC(=O)OCCN1CCOCC1)C(=O)OC2 [MMF, mycophenolate mofetil]	improves radiation outcomes	lower de novo GMP synthesis ratio	–	–
[U^13C]-glucose	–	–	≤ 30	approximately 30 minutes
